Reference: ChEMBL document CHEMBL1133791, “Intracellular inhibition of human neutrophil elastase by orally active pyrrolidine-trans-lactams” (Bioorg Med Chem Lett, 2001)
Blank lines part the entries; values can stand above or below the compound they belong to. Residues, ends and D or L forms follow the SMILES beside them. *: point of attachment. CF3 = FC(F)(F)*; Moc = COC(=O)*

Key:
[1] = target: T1, Neutrophil elastase (Homo sapiens) (UniProt P08246); experiment: In vitro inhibition of human whole blood (HWB) elastase at a concentration of 10 uM except in buffer
T1 sequence (whole entry): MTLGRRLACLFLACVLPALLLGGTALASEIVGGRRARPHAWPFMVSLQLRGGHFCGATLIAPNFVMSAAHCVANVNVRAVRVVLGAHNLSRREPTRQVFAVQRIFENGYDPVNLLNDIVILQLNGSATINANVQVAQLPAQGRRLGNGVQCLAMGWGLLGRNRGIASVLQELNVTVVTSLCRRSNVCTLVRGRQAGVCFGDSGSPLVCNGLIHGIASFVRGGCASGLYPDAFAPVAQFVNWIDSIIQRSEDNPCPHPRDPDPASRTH

[2] = target: T1, Neutrophil elastase (Homo sapiens); experiment: In vitro percent inhibition of human whole blood (HWB) elastase at a concentration of 10 uM except in plasma; type: tissue-based
Neutrophil elastase [3] = target: T2, Neutrophil elastase (Homo sapiens, UniProt P08246); experiment: In vitro inhibitory activity against human neutrophil elastase (HNE)
T2 sequence (P08246 whole entry): T1 sequence (whole entry)

Neutrophil elastase [4] = target: T2, Neutrophil elastase; experiment: In vitro inhibitory activity in human whole blood (HWB) elastase; type: tissue-based
[5] = target: T1, Neutrophil elastase (Homo sapiens); experiment: In vitro inhibition of human whole blood (HWB) elastase at a concentration of 10 uM
[6] = Half life after iv administration at 4 mg/kg in hamster; type: ADME, organism-based; parameters: dose 4 mg/kg, route intravenous; conditions: cricetinae, in vivo
[7] = Solubility in water was evaluated.; type: physicochemical
[8] = target: T1, Neutrophil elastase (Homo sapiens); experiment: Compound was evaluated in vivo for the inhibition of elastase in hamster bronchoalveolar lavage (BAL) 6 hour after an intratracheal dose of IL-8 at a concentration 10 mg/kg; type: organism-based; parameters: dose 10 mg/kg; conditions: Cricetulus griseus; Lung
[9] = target: T1, Neutrophil elastase (Homo sapiens); experiment: Compound was evaluated in vivo for the inhibition of elastase in hamster bronchoalveolar lavage (BAL) 6 hour after an intratracheal dose of IL-8 at a concentration 20 mg/kg; type: organism-based; parameters: dose 20 mg/kg; conditions: Cricetulus griseus; Lung
Hamster [10] = experiment: Plasma clearance after iv administration at 4 mg/kg in hamster; type: ADME, organism-based; parameters: dose 4 mg/kg, route intravenous; conditions: cricetinae, in vivo
[11] = Volume distribution after iv administration at 4 mg/kg in hamster; type: ADME, organism-based; parameters: dose 4 mg/kg, route intravenous; conditions: cricetinae, in vivo
[12] = Bioavailability after po administration at 4 mg/kg in hamster; type: ADME, organism-based, Cricetulus griseus; conditions: chinese hamster, in vivo
[13] = target: T1, Neutrophil elastase (Homo sapiens); experiment: Compound was evaluated in vivo for the inhibition of elastase in hamster bronchoalveolar lavage (BAL) 6 hour after an intratracheal dose of IL-8 at a concentration 40 mg/kg; type: organism-based; parameters: dose 40 mg/kg; conditions: Cricetulus griseus; Lung
Neutrophil elastase [14] = target: T2, Neutrophil elastase; experiment: In vitro inhibitory activity in human whole blood (HWB) elastase at a concentration of 10; type: tissue-based
[15] = target: T1, Neutrophil elastase (Homo sapiens); conditions: Cricetulus griseus; Liver; Microsome; 20 mg/kg
Description: Compound was evaluated for the inhibition of elastase in hamster liver microsomes at a concentration of 20 mg/kg

[16] = Half life after iv administration at 3 mg/kg in hamster; type: ADME, organism-based; parameters: dose 3 mg/kg, route intravenous; conditions: cricetinae, in vivo
[17] = target: T1, Neutrophil elastase (Homo sapiens); conditions: Cricetulus griseus; Liver; Microsome; 10 mg/kg
Description: Compound was evaluated for the inhibition of elastase in hamster liver microsomes at a concentration of 10 mg/kg

[18] = Volume distribution after iv administration at 3 mg/kg in hamster; type: ADME, organism-based; parameters: dose 3 mg/kg, route intravenous; conditions: cricetinae, in vivo
Hamster [19] = experiment: Plasma clearance after iv administration at 3 mg/kg in hamster; type: ADME, organism-based; parameters: dose 3 mg/kg, route intravenous; conditions: cricetinae, in vivo
[20] = Half life after po administration of 10 mg/kg in hamster; type: ADME, organism-based; parameters: dose 10 mg/kg, route oral; conditions: cricetinae, in vivo
[21] = Bioavailability after po administration of 10 mg/kg in hamster; type: ADME, organism-based, Cricetulus griseus; conditions: chinese hamster, in vivo

IC50 (Neutrophil elastase [3]): 29 nM
Structure (SMILES): C=CC[C@H]1C(=O)N(CCCCCC)[C@H]2CCN(C(=O)OCc3ccccc3)[C@H]12

IC50 (Neutrophil elastase [3]): 31 nM
Structure (SMILES): C=CC[C@H]1C(=O)N(C(=O)NCC)[C@H]2CCN(C(=O)OCc3ccccc3)[C@H]12

inhibition [5]: 98%
Structure (SMILES): C=CC[C@H]1C(=O)N(S(C)(=O)=O)[C@H]2CCN(C(=O)OCc3ccccc3)[C@H]12

IC50 (Neutrophil elastase [3]): 2 nM
Structure (SMILES): C=CC[C@H]1C(=O)N(C(=O)OCC)[C@H]2CCN(C(=O)OCc3ccccc3)[C@H]12

The next lines start with the compound.

Structure (SMILES): C=CC[C@H]1C(=O)N(S(=O)(=O)c2ccc3ccccc3c2)[C@H]2CCN(C(=O)OCc3ccccc3)[C@H]12
inhibition [1]: 92%
inhibition [2]: 23%

Structure (SMILES): COC(=O)N[C@H](C(=O)N1CCC[C@H]1C(=O)N[C@H](C(=O)C(F)(F)F)C(C)C)C(C)C (Moc-Val-Pro-Val-CF3)
IC50 (Neutrophil elastase [4]): > 10 nM

Structure (SMILES): CCC[C@H]1C(=O)N(S(=O)(=O)c2ccc3ccccc3c2)[C@H]2CCN(C(=O)CCN3CCCCC3)[C@H]12.Cl
half-life [6]: 30 min
IC50 (Neutrophil elastase [3]): 137 nM
solubility [7]: > 1000 µg/mL
inhibition [8]: 10%
inhibition [9]: 30%
Clp (Hamster [10]): 200 mL/min/kg
Vd [11]: 8.1 L/kg
bioavailability [12]: 1%
inhibition [13]: 60%

Structure (SMILES): CCC[C@@H](NC(=O)N1C(=O)C(CC)(CC)[C@@H]1Oc1ccc(C(=O)N2CCN(C)CC2)cc1)c1ccc2c(c1)OCO2
IC50 (Neutrophil elastase [14]): 0.45 nM

Structure (SMILES): C=CC[C@H]1C(=O)N[C@H]2CCN(C(=O)OCc3ccccc3)[C@@H]21
IC50 (Neutrophil elastase [3]): > 500 nM

Structure (SMILES): CCC[C@H]1C(=O)N(S(C)(=O)=O)[C@H]2CCN(C(=O)CCN3CCCCC3)[C@H]12.Cl
inhibition [15]: 76%
half-life [16]: 12 min
IC50 (Neutrophil elastase [3]): 140 nM
solubility [7]: > 1000 µg/mL
inhibition [17]: 41%
Vd [18]: 2.3 L/kg
Clp (Hamster [19]): 140 mL/min/kg
half-life [20]: 30 min
bioavailability [21]: 49%
